According to patent US20240001019A1, “MBL-COATED SUBSTRATES HAVING ANTI-THROMBOGENIC PROPERTIES” (MIRAKI INNOVATION THINK TANK LLC, priority 2020, published 2024):

Tests used:
[1] = Retention of coupled FcMBL on the membrane under flow (PBS/EDTA wash fractions); type: physicochemical; conditions: Lot 152-04052017, Devices #1-#3, serial 45 mL fractions
Protocol: The FcMBL protein concentration in each sample was determined using the Pierce 660 nm assay and an FcMBL standard curve.
Three Filtrivas from Lot 152-04052017 (Devices #1, #2, and #3) were selected for analysis of their respective PBS/EDTA wash fractions to determine the extent to which the FcMBL bound to the membrane, remains bound under flow conditions. The mass of protein obtained from five serial fractions of 45 mL, three fractions from the Blood Port Output and two fractions from the subsequent Wash Buffer, was determined. […] After the second Blood Port Output, the amount of FcMBL in the subsequent fractions was undetectable (data not shown).

[2] = system: CD62P (platelet P-selectin); assay: Flow-cytometric analysis of platelet activation (CD62P on CD41a positive platelets); type: cell-based, human; conditions: for CD62P geometrical means of fluorescence intensity from TRAP-incubated samples: 35 μM TRAP, 20 min

Substance	FcMBL coupled to the membrane under flow, PBS/EDTA washing [1]	CD62P geometrical means of fluorescence intensity from TRAP-incubated samples ([2]; 1st experiment)	CD62P geometrical means of fluorescence intensity from TRAP-incubated samples ([2]; 2nd experiment)	CD62P geometrical means of fluorescence intensity from TRAP-incubated samples ([2]; 3rd experiment)	CD62P geometrical means of fluorescence intensity, positive control ([2]; all experiments)
FcMBL: 383-amino acid human recombinant fusion protein: carbohydrate-binding and neck domains of MBL and Fc domain of human IgG1	stays bound under flow conditions				
thrombin receptor activating peptide [TRAP]		1376	209	350	> 200
